Assay results: PMC3602154 (PLoS ONE, 2013)

Legend:
[1] = biological target: NET (norepinephrine transporter) (Homo sapiens, UniProt P23975); experiment: PDSP radioligand binding, norepinephrine transporter; conditions: 10 µM, quadruplicate; read-out: NET Primary Screen inhibition of binding
Excerpt: (§1) [17] and http://pdsp.med.unc.edu/UNC-CH%20Protocol%20Book.pdf.

Sigma1 = Sigma1 (Homo sapiens, UniProt Q99720); experiment: PDSP radioligand binding, Sigma1; conditions: for inhibition at 10 µM: quadruplicate, read-out: Sigma1 Primary Screen inhibition of binding
Sigma1, sequence (Q99720 whole entry): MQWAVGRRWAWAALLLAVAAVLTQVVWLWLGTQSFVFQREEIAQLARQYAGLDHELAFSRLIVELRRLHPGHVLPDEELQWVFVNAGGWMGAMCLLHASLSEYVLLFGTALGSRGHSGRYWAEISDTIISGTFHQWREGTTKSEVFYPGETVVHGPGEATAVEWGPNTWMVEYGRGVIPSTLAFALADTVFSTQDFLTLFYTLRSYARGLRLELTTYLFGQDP
Excerpt: as §1

Sigma2 = Sigma2 (Homo sapiens, UniProt Q5BJF2); experiment: PDSP radioligand binding, Sigma2; conditions: for Ki: Table 2
Sigma2, sequence (Q5BJF2 whole entry): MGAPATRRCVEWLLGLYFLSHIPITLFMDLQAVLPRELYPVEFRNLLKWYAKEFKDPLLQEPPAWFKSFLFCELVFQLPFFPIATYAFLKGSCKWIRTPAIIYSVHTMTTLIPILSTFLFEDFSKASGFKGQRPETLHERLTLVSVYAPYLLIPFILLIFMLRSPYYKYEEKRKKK
Excerpt: as §1

[2] = biological target: NMDA Receptor (MK-801 binding site); experiment: PDSP radioligand binding, NMDA receptor; conditions: Table 2; for Ki: read-out: NMDA (Ki) (converted)
Excerpt: as §1

[3] = biological target: SERT (serotonin transporter) (Homo sapiens, UniProt P31645); experiment: biochemical; assay type: binding
SERT (serotonin transporter), sequence (P31645 whole entry, species assumed): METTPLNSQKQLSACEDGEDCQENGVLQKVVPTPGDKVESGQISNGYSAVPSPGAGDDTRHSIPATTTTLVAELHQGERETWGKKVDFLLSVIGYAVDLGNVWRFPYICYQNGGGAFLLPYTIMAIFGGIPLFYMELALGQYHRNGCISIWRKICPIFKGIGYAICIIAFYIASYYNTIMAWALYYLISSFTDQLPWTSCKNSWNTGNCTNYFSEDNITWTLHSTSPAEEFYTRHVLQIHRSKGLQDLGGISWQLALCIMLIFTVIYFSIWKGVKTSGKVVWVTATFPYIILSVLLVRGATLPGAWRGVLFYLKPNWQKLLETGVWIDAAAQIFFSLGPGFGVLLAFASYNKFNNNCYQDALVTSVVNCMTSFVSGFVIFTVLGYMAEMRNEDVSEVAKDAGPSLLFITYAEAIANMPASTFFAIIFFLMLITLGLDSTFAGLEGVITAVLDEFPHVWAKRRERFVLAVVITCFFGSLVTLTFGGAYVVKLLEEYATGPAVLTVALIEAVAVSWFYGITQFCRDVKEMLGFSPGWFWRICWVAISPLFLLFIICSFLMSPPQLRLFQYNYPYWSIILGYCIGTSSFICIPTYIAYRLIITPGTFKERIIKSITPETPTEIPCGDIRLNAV
Excerpt: as §1

[4] = system: dopamine transporter (DAT); conditions: cited from earlier work

NET (norepinephrine transporter), sequence (P23975 whole entry, species assumed): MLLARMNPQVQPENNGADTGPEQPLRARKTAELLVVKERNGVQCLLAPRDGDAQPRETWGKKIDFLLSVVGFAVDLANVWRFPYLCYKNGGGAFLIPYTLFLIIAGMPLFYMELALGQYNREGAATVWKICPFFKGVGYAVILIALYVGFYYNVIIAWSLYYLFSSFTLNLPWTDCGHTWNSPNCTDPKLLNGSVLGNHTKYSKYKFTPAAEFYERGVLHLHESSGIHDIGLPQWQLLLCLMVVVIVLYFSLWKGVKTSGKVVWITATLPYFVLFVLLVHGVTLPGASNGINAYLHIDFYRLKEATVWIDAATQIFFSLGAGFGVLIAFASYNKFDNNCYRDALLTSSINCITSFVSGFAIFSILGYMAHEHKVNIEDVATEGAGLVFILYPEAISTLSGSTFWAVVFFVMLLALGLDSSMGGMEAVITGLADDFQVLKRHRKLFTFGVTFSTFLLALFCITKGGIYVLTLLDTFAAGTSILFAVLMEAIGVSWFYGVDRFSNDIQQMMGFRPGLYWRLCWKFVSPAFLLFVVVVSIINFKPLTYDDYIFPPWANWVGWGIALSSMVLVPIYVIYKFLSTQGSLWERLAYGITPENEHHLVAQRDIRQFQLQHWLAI

CNC1(c2ccccc2Cl)CCCCC1=O (racemic) [Ketamine, (RS)-2-(2-chlorophenyl)-2-(methylamino)cyclohexanone, reference compound]
inhibition at 10 µM [1]: < 50%
inhibition at 10 µM (Sigma1): < 50%
effect on sigma1 receptors (Sigma1; tested at 10 µM): no significant effect
inhibition at 10 µM (Sigma2; 10 µM, quadruplicate, read-out: Sigma2 Primary Screen inhibition of binding): < 50%
effect on sigma2 receptors (Sigma2; tested at 10 µM): no significant effect

CCNC1(c2cccc(OC)c2)CCCCC1 [3-MeO-PCE, N-ethyl-1-(3-methoxyphenyl)cyclohexanamine]
inhibition at 10 µM [1]: < 50%
NMDA pKi +/− SD [2]: 7.22±0.08
Ki [2]: 61 nM
affinity for the serotonin transporter (SERT), in words [3]: submicromolar affinities
Ki ([3]; Table 2): 115 nM
Ki (Sigma1): 4520 nM
Ki (Sigma2; Sigma2 (Ki, nM)): 525 nM
Ki (Sigma2; Sigma2 pKi +/− SD): 490 nM

c1ccc(C2(N3CCCCC3)CCCCC2)cc1 [Phencyclidine, reference compound]
inhibition at 10 µM [1]: < 50%
Ki [2]: 59 nM
inhibition at 10 µM (Sigma1): < 50%
Ki (Sigma2; Sigma2 (Ki, nM)): 136 nM
Ki (Sigma2; Sigma2 pKi +/− SD): 151 nM
potency at DAT, in words [4]: submicromolar potency
